{
  "source": "the supplement of paper PMC10307832",
  "experiment_in_all_cases": "relative viability (nuclei count vs DMSO), 5 days (fraction); higher = more cells survive",
  "key": {"[1]": {"compound": "CC1=CC=C(C=C1)C(=O)CN2C3=C(CCCC3)SC2=N [Pifithrin_alpha] + CS(=O)(=O)CCNCc1ccc(-c2ccc3ncnc(Nc4ccc(OCc5cccc(F)c5)c(Cl)c4)c3c2)o1 [Lapatinib] (partner 2 µM)", "procedure,_shortened": "(§1)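 Dosing by pin tool came one day after lung cancer cell lines were seeded in 1536-well plates, using either one drug or a fixed anchor-drug dose plus five library-drug doses (not always all listed) in √10 steps. After 5 days, nuclei were counted on 4× images. Relative viability is treated-well nuclei count divided by vehicle-well nuclei count, and values are medians of duplicate plates.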"}, "Bemcentinib + Pictilisib": {"compound": "Nc1nc(Nc2ccc3c(c2)CC[C@@H](N2CCCC2)CC3)nn1-c1cc2c(nn1)-c1ccccc1CCC2 [Bemcentinib] + CS(=O)(=O)N1CCN(Cc2cc3nc(-c4cccc5[nH]ncc45)nc(N4CCOCC4)c3s2)CC1 [Pictilisib] (partner 1 µM)", "procedure,_shortened": "as §1"}, "[2]": {"compound": "CC1=CC=C(C=C1)C(=O)CN2C3=C(CCCC3)SC2=N [Pifithrin_alpha] + CS(=O)(=O)N1CCN(Cc2cc3nc(-c4cccc5[nH]ncc45)nc(N4CCOCC4)c3s2)CC1 [Pictilisib] (partner 1 µM)", "procedure,_shortened": "as §1"}, "Bemcentinib + Decitabine": {"compound": "Nc1nc(Nc2ccc3c(c2)CC[C@@H](N2CCCC2)CC3)nn1-c1cc2c(nn1)-c1ccccc1CCC2 [Bemcentinib] + Nc1ncn([C@H]2C[C@H](O)[C@@H](CO)O2)c(=O)n1 [Decitabine] (partner 2 µM)", "procedure,_shortened": "as §1"}},
  "data": [
    {"cell line": "SK-LU-1", "values": [
      {"measurement": "relative viability", "setting": "[1]; first compound 1 µM", "result": 0.937},
      {"measurement": "relative viability", "setting": "[1]; first compound 3.162 µM", "result": 0.911},
      {"measurement": "relative viability", "setting": "[1]; first compound 10 µM", "result": 0.948},
      {"measurement": "relative viability", "setting": "[1]; first compound 31.62 µM", "result": 0.599},
      {"measurement": "relative viability", "setting": "[1]; first compound 100 µM", "result": 0.935},
      {"measurement": "relative viability", "setting": "Bemcentinib + Pictilisib; first compound 0.04 µM", "result": 0.557},
      {"measurement": "relative viability", "setting": "Bemcentinib + Pictilisib; first compound 0.1265 µM", "result": 0.572},
      {"measurement": "relative viability", "setting": "Bemcentinib + Pictilisib; first compound 0.4 µM", "result": 0.619},
      {"measurement": "relative viability", "setting": "Bemcentinib + Pictilisib; first compound 1.265 µM", "result": 0.587},
      {"measurement": "relative viability", "setting": "Bemcentinib + Pictilisib; first compound 4 µM", "result": 0.679},
      {"measurement": "relative viability", "setting": "[2]; first compound 1 µM", "result": 0.523},
      {"measurement": "relative viability", "setting": "[2]; first compound 3.162 µM", "result": 0.526},
      {"measurement": "relative viability", "setting": "[2]; first compound 10 µM", "result": 0.615},
      {"measurement": "relative viability", "setting": "[2]; first compound 31.62 µM", "result": 0.451},
      {"measurement": "relative viability", "setting": "[2]; first compound 100 µM", "result": 0.45},
      {"measurement": "relative viability", "setting": "Bemcentinib + Decitabine; first compound 0.04 µM", "result": 0.533},
      {"measurement": "relative viability", "setting": "Bemcentinib + Decitabine; first compound 0.1265 µM", "result": 0.764},
      {"measurement": "relative viability", "setting": "Bemcentinib + Decitabine; first compound 0.4 µM", "result": 0.74},
      {"measurement": "relative viability", "setting": "Bemcentinib + Decitabine; first compound 1.265 µM", "result": 0.615},
      {"measurement": "relative viability", "setting": "Bemcentinib + Decitabine; first compound 4 µM", "result": 0.623}
    ]},
    {"cell line": "SK-MES-1", "values": [
      {"measurement": "relative viability", "setting": "[1]; first compound 1 µM", "result": 0.461},
      {"measurement": "relative viability", "setting": "[1]; first compound 3.162 µM", "result": 0.447},
      {"measurement": "relative viability", "setting": "[1]; first compound 10 µM", "result": 0.458},
      {"measurement": "relative viability", "setting": "[1]; first compound 31.62 µM", "result": 0.439},
      {"measurement": "relative viability", "setting": "[1]; first compound 100 µM", "result": 0.447},
      {"measurement": "relative viability", "setting": "Bemcentinib + Pictilisib; first compound 0.04 µM", "result": 0.303},
      {"measurement": "relative viability", "setting": "Bemcentinib + Pictilisib; first compound 0.1265 µM", "result": 0.379},
      {"measurement": "relative viability", "setting": "Bemcentinib + Pictilisib; first compound 0.4 µM", "result": 0.404},
      {"measurement": "relative viability", "setting": "Bemcentinib + Pictilisib; first compound 1.265 µM", "result": 0.361},
      {"measurement": "relative viability", "setting": "Bemcentinib + Pictilisib; first compound 4 µM", "result": 0.374},
      {"measurement": "relative viability", "setting": "[2]; first compound 1 µM", "result": 0.392},
      {"measurement": "relative viability", "setting": "[2]; first compound 3.162 µM", "result": 0.32},
      {"measurement": "relative viability", "setting": "[2]; first compound 10 µM", "result": 0.33},
      {"measurement": "relative viability", "setting": "[2]; first compound 31.62 µM", "result": 0.293},
      {"measurement": "relative viability", "setting": "[2]; first compound 100 µM", "result": 0.237},
      {"measurement": "relative viability", "setting": "Bemcentinib + Decitabine; first compound 0.04 µM", "result": 0.363},
      {"measurement": "relative viability", "setting": "Bemcentinib + Decitabine; first compound 0.1265 µM", "result": 0.361},
      {"measurement": "relative viability", "setting": "Bemcentinib + Decitabine; first compound 0.4 µM", "result": 0.451},
      {"measurement": "relative viability", "setting": "Bemcentinib + Decitabine; first compound 1.265 µM", "result": 0.315},
      {"measurement": "relative viability", "setting": "Bemcentinib + Decitabine; first compound 4 µM", "result": 0.379}
    ]},
    {"cell line": "SW 1573", "values": [
      {"measurement": "relative viability", "setting": "[1]; first compound 1 µM", "result": 1.1},
      {"measurement": "relative viability", "setting": "[1]; first compound 3.162 µM", "result": 1.14},
      {"measurement": "relative viability", "setting": "[1]; first compound 10 µM", "result": 1.02},
      {"measurement": "relative viability", "setting": "[1]; first compound 31.62 µM", "result": 0.798},
      {"measurement": "relative viability", "setting": "[1]; first compound 100 µM", "result": 0.81},
      {"measurement": "relative viability", "setting": "Bemcentinib + Pictilisib; first compound 0.04 µM", "result": 0.409},
      {"measurement": "relative viability", "setting": "Bemcentinib + Pictilisib; first compound 0.1265 µM", "result": 0.532},
      {"measurement": "relative viability", "setting": "Bemcentinib + Pictilisib; first compound 0.4 µM", "result": 0.618},
      {"measurement": "relative viability", "setting": "Bemcentinib + Pictilisib; first compound 1.265 µM", "result": 0.488},
      {"measurement": "relative viability", "setting": "Bemcentinib + Pictilisib; first compound 4 µM", "result": 0.494},
      {"measurement": "relative viability", "setting": "[2]; first compound 1 µM", "result": 0.596},
      {"measurement": "relative viability", "setting": "[2]; first compound 3.162 µM", "result": 0.595},
      {"measurement": "relative viability", "setting": "[2]; first compound 10 µM", "result": 0.59},
      {"measurement": "relative viability", "setting": "[2]; first compound 31.62 µM", "result": 0.438},
      {"measurement": "relative viability", "setting": "[2]; first compound 100 µM", "result": 0.491},
      {"measurement": "relative viability", "setting": "Bemcentinib + Decitabine; first compound 0.04 µM", "result": 0.427},
      {"measurement": "relative viability", "setting": "Bemcentinib + Decitabine; first compound 0.1265 µM", "result": 0.55},
      {"measurement": "relative viability", "setting": "Bemcentinib + Decitabine; first compound 0.4 µM", "result": 0.595},
      {"measurement": "relative viability", "setting": "Bemcentinib + Decitabine; first compound 1.265 µM", "result": 0.544},
      {"measurement": "relative viability", "setting": "Bemcentinib + Decitabine; first compound 4 µM", "result": 0.468}
    ]},
    {"cell line": "UMC-11", "values": [
      {"measurement": "relative viability", "setting": "[1]; first compound 1 µM", "result": 1.03},
      {"measurement": "relative viability", "setting": "[1]; first compound 3.162 µM", "result": 1.06},
      {"measurement": "relative viability", "setting": "[1]; first compound 10 µM", "result": 0.933},
      {"measurement": "relative viability", "setting": "[1]; first compound 31.62 µM", "result": 0.764},
      {"measurement": "relative viability", "setting": "[1]; first compound 100 µM", "result": 1.06},
      {"measurement": "relative viability", "setting": "Bemcentinib + Pictilisib; first compound 0.04 µM", "result": 0.615},
      {"measurement": "relative viability", "setting": "Bemcentinib + Pictilisib; first compound 0.1265 µM", "result": 0.929},
      {"measurement": "relative viability", "setting": "Bemcentinib + Pictilisib; first compound 0.4 µM", "result": 0.902},
      {"measurement": "relative viability", "setting": "Bemcentinib + Pictilisib; first compound 1.265 µM", "result": 0.585},
      {"measurement": "relative viability", "setting": "Bemcentinib + Pictilisib; first compound 4 µM", "result": 0.85},
      {"measurement": "relative viability", "setting": "[2]; first compound 1 µM", "result": 0.775},
      {"measurement": "relative viability", "setting": "[2]; first compound 3.162 µM", "result": 0.802},
      {"measurement": "relative viability", "setting": "[2]; first compound 10 µM", "result": 0.888},
      {"measurement": "relative viability", "setting": "[2]; first compound 31.62 µM", "result": 0.604},
      {"measurement": "relative viability", "setting": "[2]; first compound 100 µM", "result": 1.03},
      {"measurement": "relative viability", "setting": "Bemcentinib + Decitabine; first compound 0.04 µM", "result": 0.576},
      {"measurement": "relative viability", "setting": "Bemcentinib + Decitabine; first compound 0.1265 µM", "result": 0.565},
      {"measurement": "relative viability", "setting": "Bemcentinib + Decitabine; first compound 0.4 µM", "result": 0.521},
      {"measurement": "relative viability", "setting": "Bemcentinib + Decitabine; first compound 1.265 µM", "result": 0.628},
      {"measurement": "relative viability", "setting": "Bemcentinib + Decitabine; first compound 4 µM", "result": 0.58}
    ]}
  ]
}
